The values that follow come from ChEMBL document CHEMBL1132813, “Design, synthesis and cytotoxic activities of naphthyl analogues of combretastatin A-4” (Bioorg Med Chem Lett, 2000).

What all share (assay type): functional, cell-based
One assay relates to HT-29. In words: The compound was evaluated for its cytotoxic potency against HT-29 cell line. The note with it: Homo sapiens.
The subject of another assay is SK-MEL-28. In words: The compound was evaluated for its cytotoxic potency against MEL-28 cell line. The note with it: Homo sapiens.
For the next assay, the system named is A549. In words: The compound was evaluated for its cytotoxic potency against A-549 cell line. The note with it: Homo sapiens.
The subject of a further assay is P388. In words: The compound was evaluated for its cytotoxic potency against P388 cell line. As to conditions: Mus musculus.

A word on the IC50: it is the concentration at which inhibition is half-maximal. Read a low IC50 as higher potency. With `COc1ccc(/C=C\c2ccc3ccccc3c2)cc1O`, the IC50 in the assay with HT-29, in the assay with SK-MEL-28, with A549 and in the assay with P388 was 0.0398 µM in each case.
As to `COc1cc(CCc2ccc3ccccc3c2)cc(OC)c1OC`, the IC50 with HT-29, with SK-MEL-28, in the assay on A549 and in the assay with P388 was 0.316 µM in each case.
For `COc1cc(/C=C/c2ccc3ccccc3c2)cc(OC)c1OC`, the IC50 with HT-29, in the assay with SK-MEL-28, in the assay on A549 and in the assay on P388 was 0.398 µM each time.
As to `COc1ccc(CCc2ccc3ccccc3c2)cc1O`, the IC50 in the assay on HT-29 is 10 µM; in the assay with SK-MEL-28, 5.01 µM; in the assay on A549, 5.01 µM; in the assay on P388 it was 5.01 µM.
As to `COc1ccc(/C=C\c2cc(OC)c(OC)c(OC)c2)cc1O` [COMBRETASTATIN A4], the IC50 in the assay on HT-29 is 0.0316 µM; in the assay on SK-MEL-28, 0.00316 µM; in the assay with A549, 0.00316 µM; with P388, 0.00316 µM.
For the molecule `COc1cc(/C=C\c2ccc3ccccc3c2)cc(OC)c1OC` [NAPHTHYLCOMBRETASTATIN], the IC50 in the assay with HT-29, with SK-MEL-28, in the assay with A549 and in the assay with P388 was 0.0158 µM each time.
Take `C(=C/c1ccc2ccccc2c1)/c1ccc2ccccc2c1`: the IC50 in the assay with HT-29, in the assay on SK-MEL-28, in the assay on A549 and in the assay with P388 was 3.98 µM throughout.
On to `COc1ccc(/C=C/c2ccc3ccccc3c2)cc1O`, for which the IC50 in the assay with HT-29, in the assay on SK-MEL-28, in the assay on A549 and in the assay with P388 was 3.98 µM each time.
For `COc1ccc2[nH]c(-c3ccc4ccccc4c3)c(-c3cc(OC)c(OC)c(OC)c3)c2c1`, the IC50 in the assay on HT-29, with SK-MEL-28, in the assay on A549 and in the assay with P388 was 1.26 µM each time.
